In one data set the target is p96-isoform of Dab2 (Homo sapiens (Human), UniProt P98082). Nature of the data set: Peptide pull-down from CFBE cell lysates and western blot. The data set is classed as binding. As to conditions: CFBE cell lysates, western blot. As for the experimental part:
(§1) Peptide Pull-down and Western Blotting. Streptavidin-paramagnetic particles (Promega) were washed twice with wash buffer (50 mM Tris pH 8.0, 150 mM NaCl, 2 mM EGTA, 2 mM EDTA, 5% glycerol, 1 mM DTT) and incubated with 20 μM BT-STA02 (N-terminally biotinylated STA02) for 1 hour on a rotator at 4° C. Beads were then washed twice with wash buffer and once with lysis buffer (50 mM Tris pH 8.0, 150 mM NaCl, 2 mM EGTA, 2 mM EDTA, 5% glycerol, 1 mM DTT, 1% IGEPAL, complete protease inhibitor tablet (Roche)) before incubation with cell lysate. CFBE cells were washed twice with cold PBS, incubated with lysis buffer for 20 minutes shaking at 4° C., scraped, passed through a 27G1/2 syringe, and spun at 13000 rpm for 15 minutes at 4° C. The supernatant was incubated with BT-STA02-coated beads for 2 hours on a rotator at 4° C. Beads were then washed twice with wash buffer and bound protein was eluted with Laemmli sample buffer (Bio-Rad) at 45° C. for 10 minutes. Samples were run on a 7.5% SDS-PAGE gel and probed with anti-Dab2 (BD Biosciences) or anti-p96 Dab2 (Epitomics).
(§2) Since Dab2 is a multi-modular adaptor protein, it was determined whether STA02 binding to the DH domain occurred with the full-length (FL) protein and in the context of other cellular interacting partners. To this end, the binding of STA02 to FL-Dab2 from bronchial epithelial (CFBE) cell lysates was tested in a pull-down assay. […]

The target in another data set is p67-isoform of Dab2 (Homo sapiens (Human), UniProt P98082). The description is as above. The data set is classed as binding. As to conditions: CFBE cell lysates, western blot. As for the experimental part: as §1, §2
The next data set concerns the target ΔF508-CFTR (Homo sapiens (Human), UniProt P13569, DEL508-508). Nature of the data set: Short-circuit current (Isc), chloride currents in combination therapy. As to conditions: for chloride currents: 20 μM, in parallel with VX809 0.1 μM (48 hours) and Kalydeco (acutely), CFBE cells.
Data set [1] addresses T1, Dab2-DH domain (Homo sapiens (Human), UniProt P98082). Nature of the data set: Fluorescence polarization competition assay to identify small molecule inhibitors. The data set is classed as binding. Also noted: key to Ki: n.a., not active; +, fluorescence change with FP. As to conditions: FP competition. How it is done:
Fluorescence Polarization Competition Assay to Identify Small Molecule Inhibitors. […] Unlabeled competitor peptide (STA02) or compound hits were serially diluted and mixed with the protein-reporter mix. Percent DMSO in all samples was 1%. Plates were mixed by vibration, centrifuged at 1200 g for 2 minutes and allowed to equilibrate at room temperature for 30-45 minutes before measurement. Fluorescence polarization was measured at an excitation wavelength of 470±5 nm and an emission wavelength of 525±20 nm. Data analysis and calculation of binding affinities were as described above.
To test the validity of these hits on a smaller scale and to quantify the binding potencies (Ki values), an FP competition assay was carried out.
In general terms: In fluorescence polarisation assays a small probe gives low polarisation when free and higher when bound to something large.

The test system of the next data set is CFBE cells. Nature of the data set: Toxicity assay (LDH). As to conditions: for toxicity, of maximum toxicity (1% TRITON): 3 or 12 hours. The data set is classed as cell-based, human. How it is done:
Toxicity and Cell Viability Assays. CFBE cells were seeded at 5×10^3 in 96-well plates. Cells were treated in fetal bovine serum (FBS)-free minimum essential medium (MEM, Gibco). Assays were performed and measured according to the CYTOTOX 96 Non-Radioactive cytotoxicity Assay (G1780) kit (Promega) and the […] 96 Aqueous One solution Cell proliferation Assay kit (Promega) instructions. Percent toxicity for the LDH assay was calculated as: […]
A background signal of 0.2% DMSO in media from a well without cells was subtracted from all readings before the above-referenced calculations.

Data set [2] relates to subjects with the G551D mutation. As to conditions: 48-week clinical trial; cited from earlier work.
In a further data set the test system is CF patients. As to conditions: in combination with KALYDECO; cited from earlier work.
Data set [3] deals with T1, Dab2-DH domain. Nature of the data set: Isothermal titration calorimetry. The data set is classed as binding. As for the experimental part: Isothermal Titration calorimetry. Dab2-DH protein was dialyzed versus 150 mM NaCl, 25 mM Tris pH 8.0, and 0.02% NaN3 or 150 mM NaCl, 25 mM NaH2PO4/Na2HPO4 pH 7.4, and 0.02% NaN3. Peptides were solubilized in recovered and degassed dialysis buffer. […] Thus, to maintain a constant DMSO concentration between the cell chamber (protein solution) and the syringe (peptide solution), 1-2% DMSO was added to the ITC-protein solution. Experiments were performed at 15, 25, or 35±0.2° C. on a MICROCAL VP-ITC calorimeter. A 2 μL peptide injection over 4.1 seconds preceded 30-10 μL injections over 300 seconds each. The system was allowed to equilibrate (reach baseline) between injections for 300 seconds while stirring at a speed of 300 rpm. ITC thermograms were fit to a single-site binding model using Origin software package v11. The ITC data were presented by showing the baseline-adjusted titration as heat flow versus time (top) and the peak-integrated concentration-normalized molar heat flow per injection versus the peptide: protein molar ratio (bottom). To account for the contribution of protein, peptide, and buffer protonation enthalpies to the binding enthalpies and consequently the binding constants, titrations in buffers with known and distinct heats of ionization (Tris and Phosphate buffers) were conducted.
In general terms: In ITC the heat of successive injections is recorded.

The target of data set [4] is T1, Dab2-DH domain. Description: Fluorescence polarization competition binding of unlabeled peptides (reporter F*-STA02). As to conditions: STA02 compared to STA01. How it is done: Fluorescence Polarization. Fluorescence polarization (FP) data were measured on a microplate reader (Tecan Infinite M1000, Mannedorf, Switzerland) at 27° C. […] Plates were mixed by vibration, centrifuged for 2 minutes at 1200 g to remove air bubbles and allowed to equilibrate for 30 minutes at room temperature before measurement. […] Unlabeled competitor peptides were serially diluted and mixed with the protein-reporter mix. […] [formula] where [P]tot=total protein concentration and Kd=equilibrium dissociation constant of [PL]. Competition isotherms were fit using a non-linear least-squares algorithm implemented in EXCEL using the SOLVER function. rexp was fit to: [formula] where the free protein concentration [P] in the presence of both the reporter and competitive inhibitor was calculated as a function of the total protein and ligand concentrations and the equilibrium dissociation constant Kd (known) and Ki (fit), respectively, by exact analytical solution of the resulting cubic equation (Wang, et al. (1995) Biotechnol. Prog. 11:558-64).

[5] abbreviates: reporter F*-STA02, read-out: Ki.

Read-outs that look alike come from different tables or passages of the source. Peptide text beside a SMILES is read from it. * marks the point of attachment. Biotin = O=C1N[C@H]2[C@H](CS[C@H]2CCCCC(=O)*)N1; Ahx = NCCCCCC(=O)O

T1 sequence (P98082 33-191): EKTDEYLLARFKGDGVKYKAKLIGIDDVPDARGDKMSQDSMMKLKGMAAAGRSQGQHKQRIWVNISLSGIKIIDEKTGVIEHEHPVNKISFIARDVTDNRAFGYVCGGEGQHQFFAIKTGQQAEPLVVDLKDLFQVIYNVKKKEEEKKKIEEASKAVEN
p96-isoform of Dab2, sequence (P98082 whole entry, canonical isoform): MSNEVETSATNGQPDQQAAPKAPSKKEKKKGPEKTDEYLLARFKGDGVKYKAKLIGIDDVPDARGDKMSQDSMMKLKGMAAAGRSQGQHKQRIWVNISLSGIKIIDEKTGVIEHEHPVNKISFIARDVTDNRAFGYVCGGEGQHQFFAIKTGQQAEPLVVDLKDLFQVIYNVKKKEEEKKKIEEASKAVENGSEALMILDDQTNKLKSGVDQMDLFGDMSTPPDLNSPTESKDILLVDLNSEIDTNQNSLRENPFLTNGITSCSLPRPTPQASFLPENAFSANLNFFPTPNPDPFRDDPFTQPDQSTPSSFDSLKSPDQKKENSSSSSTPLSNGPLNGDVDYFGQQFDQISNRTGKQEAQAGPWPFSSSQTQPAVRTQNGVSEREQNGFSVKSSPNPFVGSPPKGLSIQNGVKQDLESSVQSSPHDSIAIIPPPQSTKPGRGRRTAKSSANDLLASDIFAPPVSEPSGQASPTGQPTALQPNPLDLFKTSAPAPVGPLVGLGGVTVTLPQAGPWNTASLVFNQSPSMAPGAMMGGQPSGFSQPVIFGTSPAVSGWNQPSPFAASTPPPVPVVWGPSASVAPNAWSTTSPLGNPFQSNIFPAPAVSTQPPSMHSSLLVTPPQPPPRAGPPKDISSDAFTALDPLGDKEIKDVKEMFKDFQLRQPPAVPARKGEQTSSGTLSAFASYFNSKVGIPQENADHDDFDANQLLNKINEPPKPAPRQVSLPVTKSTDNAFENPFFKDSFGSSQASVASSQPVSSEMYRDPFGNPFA
p67-isoform of Dab2, sequence (P98082 other isoform, or with tags, fused parts or gaps): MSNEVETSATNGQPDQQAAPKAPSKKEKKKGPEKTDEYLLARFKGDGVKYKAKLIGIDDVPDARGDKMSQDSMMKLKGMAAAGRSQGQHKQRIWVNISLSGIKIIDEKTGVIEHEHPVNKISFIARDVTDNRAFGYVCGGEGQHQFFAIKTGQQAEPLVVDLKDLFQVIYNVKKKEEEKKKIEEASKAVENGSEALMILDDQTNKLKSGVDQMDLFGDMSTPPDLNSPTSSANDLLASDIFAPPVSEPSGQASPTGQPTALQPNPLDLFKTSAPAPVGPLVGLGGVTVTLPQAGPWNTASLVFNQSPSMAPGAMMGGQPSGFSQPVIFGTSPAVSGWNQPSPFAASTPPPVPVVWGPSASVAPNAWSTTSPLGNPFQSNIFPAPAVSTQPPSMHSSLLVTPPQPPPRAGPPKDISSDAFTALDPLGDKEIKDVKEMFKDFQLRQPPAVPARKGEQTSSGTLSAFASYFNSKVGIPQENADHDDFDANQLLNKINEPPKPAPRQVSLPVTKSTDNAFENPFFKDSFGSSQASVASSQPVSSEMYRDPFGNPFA

In the case of `CSCC[C@H](NC(=O)[C@H](CC(N)=O)NC(=O)[C@H](CCC(=O)O)NC(=O)[C@H](CCC(N)=O)NC(=O)[C@@H]1CCCN1C(=O)[C@H](CCC(N)=O)NC(=O)[C@H](Cc1ccc(O)cc1)NC(=O)[C@H](CC(N)=O)NC(=O)[C@@H]1CCCN1C(=O)[C@H](CC(N)=O)NC(=O)[C@H](CC(=O)O)NC(=O)[C@H](Cc1ccccc1)NC(=O)CNC(=O)CNC(=O)[C@H](CO)NC(=O)CNC(=O)[C@H](CO)NC(=O)CCCCCNC(=O)CCCC[C@@H]1SC[C@@H]2NC(=O)N[C@@H]21)C(=O)N[C@@H](CCC(N)=O)C(=O)N[C@@H](C)C(=O)O` [BT-STA02] ({Biotin-Ahx}-SGSGGFDNPNYQPQENMQA-OH; C-terminus assumed), the “binding of p96-isoform of Dab2” value at p96-isoform of Dab2 is “bound”. Moreover, the “binding of p67-isoform of Dab2” value on p67-isoform of Dab2 was “did not”.

As to `CN1CCc2cccc3c2[C@@H]1Cc1ccc(O)c(O)c1-3.Cl` [Compound 1, S(+)-10,11-Dihydroxyaporphine Hydrochloride], the chloride currents result at ΔF508-CFTR is given as “enhanced chloride currents”. In addition, the inhibition constant (Ki) (as a rule, the equilibrium dissociation constant of an inhibitor or competing ligand from its target) on Dab2-DH domain [1] (setting [5]) worked out at 1.92 µM. In addition, the “toxicity, of maximum toxicity (1% TRITON)” value in the data set with CFBE cells (40 μM) came to 10%. For the same compound, the toxicity with CFBE cells (40 μM, 24 hours) is given as 20-40%.

As for `C[C@]12CC[C@@H]3c4cc(O)c(O)cc4CC[C@H]3[C@@H]1CC[C@@H]2O` [Compound 2, 2-Hydroxyestradiol], the “toxicity, of maximum toxicity (1% TRITON)” value with CFBE cells (40 μM) amounted to 10%.

As for `CC1(C)Cc2ccccc2-c2n[nH]c(=S)n21` [Compound 3, 5,5-dimethyl-5,6-dihydro [1,2,4]triazolo[3,4-a] isoquinoline-3(2H)-thione], the “benefit compared to VX809 (ANOVA, P<0.05)” value on ΔF508-CFTR (20 μM in combination with VX809 0.1 μM) is recorded as “statistically significant benefit”. In addition, the chloride currents entry on ΔF508-CFTR was “enhanced chloride currents”. The Ki on Dab2-DH domain [1] (setting [5]) and on Dab2-DH domain [1] (read-out: binding affinity (Ki)) was 0.779 µM each time. For the same compound, in the data set on CFBE cells (3 hours), the toxicity result was “no toxicity”.

In the case of `OCCN(CCO)c1nc(N2CCCCC2)c2nc(N(CCO)CCO)nc(N3CCCCC3)c2n1` [Compound 5, Dipyridamole], the inhibitory constant (Ki) result on Dab2-DH domain [1] (symbols) is “+”. In addition, at Dab2-DH domain [1] (Ki not obtained), the total fluorescence entry was “increased total fluorescence”.

For `CC(C)(C)c1cc(C(C)(C)C)c(NC(=O)c2c[nH]c3ccccc3c2=O)cc1O` [KALYDECO, N-(2,4-Di-tert-butyl-5-hydroxyphenyl)-4-oxo-1,4-dihydroquinoline-3-carboxamide], in [2], the “drop in pulmonary exacerbations” value is 55%, the “improvement in lung function (predicted FEV1)” value is given as 10.6% and the “reduction in sweat chloride” value is 48 mEq/L.

In the case of `Cc1ccc(NC(=O)C2(c3ccc4c(c3)OC(F)(F)O4)CC2)nc1-c1cccc(C(=O)O)c1` [Lumacaftor, 3-{6-{[1-(2,2-difluoro-1,3-benzodioxo1-5-yl)cyclopropanecarbonyl]amino}-3-methylpyridin-2-yl}benzoic acid], in the data set on CF patients, the “patients with >5% increase in FEV1” value is recorded as 55% and the “patients with >10% increase in FEV1” value is reported as 25%.

`CSCC[C@H](NC(=O)[C@H](CC(N)=O)NC(=O)[C@H](CCC(=O)O)NC(=O)[C@H](CCC(N)=O)NC(=O)[C@@H]1CCCN1C(=O)[C@H](CCC(N)=O)NC(=O)[C@H](Cc1ccc(O)cc1)NC(=O)[C@H](CC(N)=O)NC(=O)[C@@H]1CCCN1C(=O)[C@H](CC(N)=O)NC(=O)[C@H](CC(=O)O)NC(=O)[C@H](Cc1ccccc1)NC(=O)CNC(=O)[C@H](CC(N)=O)NC(=O)[C@@H](N)CCC(N)=O)C(=O)N[C@@H](CCC(N)=O)C(=O)N[C@@H](C)C(=O)O` [STA02]: the “net release of protons during binding (NH+)” value on Dab2-DH domain [3] (Tris and phosphate buffers) is on record as 0.04 per mole. Besides, at Dab2-DH domain [3] (Tris buffer, 25° C.), the ΔH is -20.7 ± 1.45 kcal/mol and the ΔS was −37.8 cal/mol/K. Moreover, at Dab2-DH domain [3] (estimated, 37° C.), the TΔS is -16.1 kcal/mol, the ΔG was -8.9 kcal/mol and the ΔH is -25.0 kcal/mol. Moreover, the “change of heat capacity, ΔCp” value at Dab2-DH domain [3] (from ΔH at 15, 25, and 35° C.) is recorded as −320 cal/mol/K. At Dab2-DH domain [4], the “increase in binding affinity” value stood at 2 fold.

(Values after US10864248B2, “Dab2 inhibitors for the prevention and treatment of cystic fibrosis” (Trustees of Dartmouth College, priority 2014, dated 2020).)
